According to patent publication US4734421A, “Anti-inflammatory substituted 2-benzyl-mercapto-imidazole and pyrimidine derivatives compositions and method of use therefor” (Merck & Co., Inc., priority 1986, dated 1988):

Each molecule was assayed on Mouse Ear Edema (assay: Topical Mouse Ear Assay (Mouse Ear Edema)). Settings: Table 1, Dosage 300 μg, irritant (PMA or AA) not given.
Assay type: in vivo
Experimental: (§1) The rat foot edema assay CFE and the topical mouse ear assay were used to evaluate the anti-inflammatory activity of the novel compounds of the present invention. These are established assay for screening non steroridal anti-inflammatory agents.
The right ears of mice (5 mice per group) were treated topically with either 5μ PMA ([…]) or 1000μ AA alone or with the test compound in 25μ of vehicle. The vehicle was water/pyridine/acetone (1:2:97). A control group of mice received the vehicle only. The mice were allowed food and water ad libitum during the treatment period; 2 hours for AA and 4 hours for PMA. The mice were sacrificed by cervical dislocation and a 6 mm diameter disc of tissue punched from both the treated and untreated ears. The tissue biopsies were immediately weighed and the weight increase of the treated ear relative to the weight of the untreated ear determined.
Results: The effect of representative compounds on Mouse Ear Edema
For `COc1ccc(O)c(CSc2ncccn2)c1` [drawing 8], the “Edema (% inhibition)” value was 32%. For `COc1ccc(O)c(CSc2ncc(C)n2C)c1` [drawing 6], the “Edema (% inhibition)” value was 65%. With `COc1ccc(O)c(CSc2nccn2C)c1` [drawing 5] the “Edema (% inhibition)” value was 45%. For `COc1ccc(O)c(CSc2nc3ccccc3[nH]2)c1` [drawing 7], the “Edema (% inhibition)” value was 76%.

The molecules below were run on Rat Foot Edema (assay: Rat Foot Edema Assay (CFE)). Settings: Table 2a, Dosage (μg) 30.
Assay type: in vivo
Experimental: as §1
Representative compounds of formula (I) or (II) were tested according to the well-established procedures of rat foot edema assay published in 1962 by C. A. Winter, E. A. Risley and G. W. Nuss, Proc Soc Exp Biol Med. III, 544 (1962).
Results: The effect of representative compounds on Rat Foot Edema
In the case of `COc1ccc(O)c(CSc2ncc(C)n2C)c1` [drawing 11], the “Edema (% inhibition)” value is reported as 54%. With `COc1ccc(O)c(CSc2nc3ccccc3[nH]2)c1` [drawing 14] the “Edema (% inhibition)” value was 21%. In the case of `COc1ccc(O)c(CSc2ncccn2)c1` [drawing 15], the “Edema (% inhibition)” value is reported as 3%. For `COc1ccc(O)c(CSc2nccn2C)c1` [drawing 10], the “Edema (% inhibition)” value was 74%. `COc1ccc(O)c(CSc2nc(C)cn2C)c1` was tested, and the “Edema (% inhibition)” value was 77%. For `COc1ccc(O)c(CSc2nc(C)c[nH]2)c1`, the “Edema (% inhibition)” value was 74%.

Same assay, conditions: Table 2b, Dosage (mpk) 30
For `Cc1cnc(SCc2cc3c(cc2O)CCCO3)n1C`, the “% Inhibition” value was 42%.
